US20030148264A1, “Phage displayed PDZ domain ligands” (GENENTECH, INC., priority 2001, published 2003)
Read-outs that look alike come from different tables or passages of the source. One block for each compound: values may come before it. Where a SMILES comes first, the peptide text is derived from it. Where no end group is shown, it is not given here. [ ]: non-standard residue; d: D form. 2Nal = N[C@@H](Cc1ccc2ccccc2c1)C(=O)O

Experiments:
ERBIN PDZ domain = ERBIN PDZ domain (Homo sapiens, UniProt Q96RT1); assay: Competition ELISA, ERBIN PDZ-GST binding to immobilized biotinylated peptide; design: made in house; host or cells: E. coli; details: for fold less potent than Ac-WETWV (SEQ ID NO:225): Alanine scanning of WETWV peptide
ERBIN PDZ domain, sequence (Q96RT1 1258-1412): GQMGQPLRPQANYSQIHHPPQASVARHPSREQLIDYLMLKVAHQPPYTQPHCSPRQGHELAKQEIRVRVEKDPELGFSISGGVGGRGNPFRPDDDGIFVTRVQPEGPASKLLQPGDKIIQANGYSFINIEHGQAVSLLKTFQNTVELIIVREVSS
Description: Binding affinities of the peptides for the ERBIN PDZ domain were determined as IC50 values using competition ELISAs. […] Assay plates were prepared by coating Maxisorp plates overnight at 4° C. with 65 μl of a 2 μg/ml solution of neutravidin in PBS. The plates were then blocked through addition of 65 μl of a 1% solution of bovine serum albumin (BSA) in PBS for 1 hour at room temperature, then washed 10 times with PBS containing 0.05% Tween-20. 65 μl of the amino-terminally biotinylated peptide PDZ 501 (TGWETWV; SEQ ID NO:222) was then added at a concentration of 100 nM in PBS with 0.5% BSA and 0.05% Tween-20 and incubated for 1 hour at room temperature. Simultaneously, binding reactions consisting of serial dilutions of the test compounds in PBS with 0.5% BSA and 0.05% Tween-20 containing 2 μg/ml ERBIN PDZ-GST fusion protein were incubated for 1 hour at room temperature. The plate coated with the immobilized peptide was again washed 10 times before 65 μl of each binding reaction was added to a well and incubated for 15 minutes at room temperature. The plates were again washed 10 times before being developed by incubating for 30 minutes with a 1:1000 dilution of anti-mouse HRP conjugated antibody and a 1:2000 dilution of a mouse anti-GST antibody in PBS with 0.5% BSA and 0.05% Tween-20. The plates were washed 10 times, then incubated with 100 μl HRP substrate for 5 minutes and the color developed through addition of 100 μl of 1 M H3PO4. The plates were read at 450 nm and the absorption fit to a binding curve using a least squares fit.
Binding affinities of the peptides for the ERBIN PDZ domain were determined as IC50 values using competition ELISAs. […] Assay plates were prepared by coating microwell plates overnight with neutravidin. The plates were then blocked through addition of BSA, and then amino-terminally biotinylated WETWV (SEQ ID NO:225) was then bound to the plates. Simultaneously, binding reactions consisting of serial dilutions of the test peptides with ERBIN PDZ-GST fusion proteins were performed. The plate coated with the immobilized WETWV (SEQ ID NO:225) was extensively washed before adding each binding reaction to the wells and briefly incubated. After further washing, anti-mouse HRP conjugated antibody and a mouse anti-GST antibody were added. The plates were then developed with HRP substrate and H3PO4, and then read at 450 nm. The absorption fit to a binding curve using a least squares fit. Thus the ability of the various peptides to inhibit ERBIN PDZ domain from binding its cognate was measured. […]

hZO1 PDZ1 = molecular target: T1, hZO1 PDZ1 (Homo sapiens, UniProt Q07157); assay: IC50 (nM) | hZO1 PDZ1 | 5 nM | B01-88 | Bio-GGWRWTTWL (SEQ ID NO 684) | 36 nM
T1 construct: Human ZO1 (NM_003257) PDZ1; GST; made in house
T1 sequence (Q07157 23-110): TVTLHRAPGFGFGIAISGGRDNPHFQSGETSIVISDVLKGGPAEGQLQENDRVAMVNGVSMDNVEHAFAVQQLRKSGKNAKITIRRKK
Description: (§1) Table printed on a drawing sheet, Fig. 12
Head of the field: IC50 (nM) | hZO1 PDZ1 | 5 nM | B01-88 | Bio-GGWRWTTWL (SEQ ID NO 684) | 36 nM
(§2) The patent's description of the figure: FIG. 12. IC50 values indicating binding affinities of various peptides to PDZ domains
(§3) First copying reader's note: The first column (three lines per block: protein, accession, PDZ domain) is treated as one cell spanning its block; an empty ruled row above the IC50/SD head is left out; #### cells are spreadsheet overflow marks as printed; several heads and cells are cut off at the left by the print (ample, eptide No, EQ ID NO).
Where the first naming reader finds the target: head: IC50 (nM) | hZO1 PDZ1 | 5 nM | B01-88

Erbin PDZ = molecular target: T2, Erbin PDZ (Homo sapiens, UniProt Q96RT1); assay: IC50 (nM) | Erbin PDZ | 2 nM | PDZ501 | Bio-Ac-GGWETWV (SEQ ID NO 687) | 37 nM
T2 construct: made in house; host or cells: E. coli
T2 sequence (Q96RT1 1258-1412): as the sequence (Q96RT1 1258-1412) above
Description: as §1, §2, §3
Where the first naming reader finds the target: head: IC50 (nM) | Erbin PDZ | 2 nM | PDZ501

[1] = molecular target: ERBIN PDZ-GST fusion protein (aa. 1217-1371 of SEQ ID NO:201) (human) [GST: P08515]; assay: competition ELISA: ERBIN PDZ-GST binding to immobilized biotin-WETWV
ERBIN PDZ-GST fusion protein (aa. 1217-1371 of SEQ ID NO:201) (human) [GST: P08515], sequence (P08515 whole entry, the tested form may be a part): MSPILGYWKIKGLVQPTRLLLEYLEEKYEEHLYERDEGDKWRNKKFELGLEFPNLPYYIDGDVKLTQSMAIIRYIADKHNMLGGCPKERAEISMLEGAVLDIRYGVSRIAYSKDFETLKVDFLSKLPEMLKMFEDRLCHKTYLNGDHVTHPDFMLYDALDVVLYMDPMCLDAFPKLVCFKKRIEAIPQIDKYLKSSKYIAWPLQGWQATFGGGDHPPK

[2] = ERBIN peptide truncations with N-terminal acylation
[3] = ERBIN peptide truncations with N-terminal acylation, read-out: IC50
[4] = Substitutions for tryptophan at the −1 position
[5] = ERBIN peptide truncations without N-terminal acylation
[6] = ERBIN peptide truncations without N-terminal acylation, read-out: IC50
[7] = Small molecules that inhibit ERBIN PDZ domain from binding immobilized WETWV, read-out: IC50
[8] = Substitutions for threonine at the −2 position and glutamate at the −3 position

Compound: CC(=O)N[C@@H](Cc1c[nH]c2ccccc12)C(=O)N[C@@H](CCC(=O)O)C(=O)N[C@H](C(=O)N[C@@H](Cc1ccc2ccccc2c1)C(=O)N[C@H](C(=O)O)C(C)C)[C@@H](C)O [Ac-WETNapV] (Ac-WET[2Nal]V-OH; C-terminus assumed)
- IC50 (ERBIN PDZ domain): 0.6 µM
- fold less potent than Ac-WETWV (ERBIN PDZ domain; [4]): 1.1 fold

Compound: CC(C)C(NC(=O)C(Cc1cc2ccccc2[nH]1)NC(=O)C1CCc2ccccc2C1)C(=O)O (centres unmarked) [WV 38]
- IC50 (ERBIN PDZ domain; [7]): 304 µM

Compound: CC(C)C(NC(=O)C(Cc1cc2ccccc2[nH]1)NC(=O)c1cnc2ccccc2n1)C(=O)O (centres unmarked) [WV 46]
- IC50 (ERBIN PDZ domain; [7]): 334 µM

Compound: CC(C)C(NC(=O)C(Cc1cc2ccccc2[nH]1)NC(=O)c1cc2ccccc2[nH]1)C(=O)O (centres unmarked) [WV 66]
- IC50 (ERBIN PDZ domain; [7]): 549 µM

Compound: Ac-AETWV [Ac-AETWV]
- IC50 (ERBIN PDZ domain): 4 µM
- fold less potent than Ac-WETWV (SEQ ID NO:225) (ERBIN PDZ domain): 8.2 fold

Compound: Ac-GWETWV [Ac-GWETWV]
- IC50 (ERBIN PDZ domain): 0.9 µM
- fold less potent than Ac-GWETWV (ERBIN PDZ domain; [2]): 1.0 fold

Compound: Ac-KETWL [20 | 01-05, SEQ ID NO 659 N^AC-KETWL]
- IC50 (hZO1 PDZ1): 12600 nM
- IC50 (Erbin PDZ): 19800 nM

Compound: Ac-KITWL [25 | 01-06, SEQ ID NO 664 N^AC-KITWL]
- IC50 (hZO1 PDZ1): 2320 nM

Compound: Ac-WATWV [Ac-WATWV]
- IC50 (ERBIN PDZ domain): 14.8 µM
- fold less potent than Ac-WETWV (SEQ ID NO:225) (ERBIN PDZ domain): 30.3 fold

Compound: Ac-WDTWV [Ac-WDTWV]
- IC50 (ERBIN PDZ domain): 1.7 µM
- fold less potent than Ac-WETWV (ERBIN PDZ domain; [8]): 3.4 fold

Compound: Ac-WEAWV [Ac-WEAWV]
- IC50 (ERBIN PDZ domain): 12.4 µM
- fold less potent than Ac-WETWV (SEQ ID NO:225) (ERBIN PDZ domain): 25.3 fold

Compound: Ac-WESWV [Ac-WESWV]
- IC50 (ERBIN PDZ domain): 2.5 µM
- fold less potent than Ac-WETWV (ERBIN PDZ domain; [8]): 5.2 fold

Compound: Ac-WETAV [Ac-WETAV]
- IC50 (ERBIN PDZ domain): 34 µM
- fold less potent than Ac-WETWV (SEQ ID NO:225) (ERBIN PDZ domain): 69.3 fold
- fold less potent than Ac-WETWV (ERBIN PDZ domain; [4]): 69.3 fold

Other lines, results leading:

- fold less potent than Ac-GWETWV (ERBIN PDZ domain; [2]): 5.1 fold
- IC50 (ERBIN PDZ domain; [3]): 4.9 µM
Compound: CC(=O)N[C@@H](CCC(=O)O)C(=O)N[C@H](C(=O)N[C@@H](Cc1c[nH]c2ccccc12)C(=O)N[C@H](C(=O)O)C(C)C)[C@@H](C)O [Ac-ETWV] (Ac-ETWV-OH; C-terminus assumed)

- fold less potent than Ac-GWETWV (ERBIN PDZ domain; [2]): 78.7 fold
- IC50 (ERBIN PDZ domain; [3]): 77.8 µM
Compound: CC(=O)N[C@@H](Cc1c[nH]c2ccccc12)C(=O)N[C@H](C(=O)O)C(C)C [Ac-WV] (Ac-Trp-Val-OH; C-terminus assumed)

- fold less potent than H1N -GWETWV (ERBIN PDZ domain; [5]): 11.5 fold
- IC50 (ERBIN PDZ domain; [6]): 16.5 µM
Compound: CC(C)[C@H](NC(=O)[C@H](Cc1c[nH]c2ccccc12)NC(=O)[C@@H](NC(=O)[C@@H](N)CCC(=O)O)[C@@H](C)O)C(=O)O [H1N -ETWV] (H-ETWV-OH; C-terminus assumed)

- fold less potent than H1N -GWETWV (ERBIN PDZ domain; [5]): 73.6 fold
- IC50 (ERBIN PDZ domain; [6]): 105 µM
Compound: CC(C)[C@H](NC(=O)[C@H](Cc1c[nH]c2ccccc12)NC(=O)[C@@H](N)[C@@H](C)O)C(=O)O [H1N -TWV] (H-Thr-Trp-Val-OH; C-terminus assumed)

- IC50 (ERBIN PDZ domain; [7]): 697 µM
Compound: CC(C)C(NC(=O)C(Cc1cc2ccccc2[nH]1)NC(=O)c1ccc(-c2ccc([N+](=O)[O-])cc2)o1)C(=O)O (centres unmarked) [WV 58]

- IC50 (hZO1 PDZ1): 21400 nM
Compound: Ac-ERIWFV [29 | 01-24, SEQ ID NO 668 NAC-ERIWFV]

- IC50 (Erbin PDZ): 3160 nM
Compound: Ac-FETWL [3 | 01-08, SEQ ID NO 642 N^AC-FETWL]

- IC50 (hZO1 PDZ1): 5310 nM
Compound: Ac-KSTWL [23 | 01-03, SEQ ID NO 662 N^AC-KSTWL]

- IC50 (hZO1 PDZ1): 2030 nM
Compound: Ac-KTSTSYV [14 | 01-97, SEQ ID NO 653 N^AC-KTSTSYV]

- IC50 (hZO1 PDZ1): 28600 nM
- IC50 (Erbin PDZ): 39700 nM
Compound: Ac-RETWL [22 | 01-02, SEQ ID NO 661 N^AC-RETWL]

- IC50 [1]: 77.4 µM
- fold less potent than Ac-GWETWV [1]: 81.5 fold
Compound: Ac-TWY (peptide)

- IC50 (hZO1 PDZ1): 20100 nM
Compound: Ac-WELLI [38 | 01-21, SEQ ID NO 677 NAC-WELLI]
